Data published in patent US6830916B2, “Sphingosine kinase, cloning, expression and methods of use” (priority 2000, dated 2004).

What was measured:
hSPHK1 [1] = target: T1, hSPHK1 (Homo sapiens, UniProt Q9NYA1); assay: SPHK-dependent phosphorylation of sphingosine analogs and other lipids (substrate specificity of hSPHK1); assay type: biochemical; settings: lipid 50 μM, lysates of HEK293 cells transfected with hSPHK1 as enzyme source
T1 construct: to obtain the full-length cDNA of hSPHK1; expressed in transfected cells; host or cells: HEK293
Description: (§1) Cytosolic sphingosine kinase activity was determined with 50 μM sphingosine dissolved in Triton X-100 (final concentration 0.25%) and […] (10 μCi, 1 mM) containing MgCl2 (10 mM). In some studies, sphingosine was added as a complex with bovine serum albumin (BSA). Specific activity was expressed as pmol SPP formed per minute per mg protein.
(§2) HEK293 cells were transfected with hSPHK1 and SPHK-dependent phosphorylation of various sphingosine analogs or other lipids (50 μM) was measured using cell lysates as enzyme source. DAG, diacylglycerol; PI, phosphatidylinositol; C2-CER, N-acetyl—sphingosine. […] SPHK activity in HEK293 cell lysates 24 h after transfection with hSPHK1 was measured with 10 μM […] in the absence or presence of 20 μM and 40 μM DMS or DHS. Data are means±SD and are expressed as percent inhibition.

hSPHK1 [2] = target: T1, hSPHK1; assay: Inhibition of SPHK activity in lysates of HEK293 cells transfected with hSPHK1; assay type: biochemical; settings: for inhibition of hSPHK1: 20 μM and 40 μM inhibitor, 10 μM SPP (so in the source), HEK293 lysates 24 h after transfection
Description: as §1, §2

mouse melanoma B10 cells = settings: low nanomolar concentrations of SPP; also SPP immobilized on glass beads; cited from earlier work
c-myc-SPHK = assay: Cytosolic c-myc-SPHK activity in transfected NIH 3T3 fibroblasts; assay type: cell-based
Description: as §1

[3] = substrate: CCCCCCCCCCCCC/C=C/[C@@H](O)[C@@H](N)CO; assay: SPHK-dependent phosphorylation of sphingosine analogs and other lipids (substrate specificity of hSPHK1); assay type: biochemical, human; settings: other: D-erythro-sphingosine as substrate
Description: as §1, §2

With `CCCCCCCCCCCCC/C=C/[C@@H](O)[C@H](CO)NC(C)=O` [C2-ceramide, N-acetyl—sphingosine] the “substrate of hSPHK1 (SPHK-dependent phosphorylation)” value (from here on “substrate of hSPHK1”) (hSPHK1 [1]) was “not substrates”.

In the case of `CCCCCCCCCCCCC/C=C/[C@@H](O)[C@@H](N)CO` [D-erythro-sphingosine], the “substrate of hSPHK1” value (hSPHK1 [1]) is reported as “more efficiently phosphorylated than sphingamine” and the “substrate of hSPHK1” value (hSPHK1 [1]; listed as D-(+)-erythro-trans-isomer of sphingosine) is reported as “best substrates”.

With `CCCCCCCCCCCCCCC[C@H](O)[C@@H](N)CO` [DHS, D,L-threo-dihydrosphingosine] the “inhibition of hSPHK1” value (hSPHK1 [2]) was “inhibited hSPHK1”, the “inhibition of hSPHK1” value (hSPHK1 [2]; listed as D,L-threo-dihydro-sphingosine) was “inhibitors of hSPHK1” and the “relative inhibitory potency on hSPHK1” value (hSPHK1 [2]; DHS compared with DMS) was “slightly more potent thank DMS”. The “substrate of hSPHK1” value (hSPHK1 [1]) was “not substrates”.

For `CCCCCCCCCCCCC/C=C/[C@@H](O)[C@@H](N)COP(=O)(O)O` [SPP, Sphingosine-1-phosphate], the “effect on cell motility” value (mouse melanoma B10 cells) is listed as “inhibited the motility”.

For `CCCCCCCCCCCCCCC[C@H](O)[C@H](N)CO` [erythrodihydrosphingosine], the “substrate of hSPHK1” value (hSPHK1 [1]) was “best substrates”.

In the case of N,N-dimethylsphingosine [DMS], the “inhibition of hSPHK1” value (hSPHK1 [2]) is reported as “inhibitors of hSPHK1” and the “inhibition of hSPHK1” value (hSPHK1 [2]; listed as CMS) is reported as “inhibited hSPHK1”.

With PDGF the “effect on cytosolic c-myc-SPHK activity” value (c-myc-SPHK) was “stimulated”.

In the case of diacylglycerol, the “substrate of hSPHK1” value (hSPHK1 [1]) is reported as “not substrates”.

In the case of phosphatidylinositol, the “substrate of hSPHK1” value (hSPHK1 [1]) is reported as “not substrates”.

B1: hSPHK1 (Homo sapiens) (protein)
chain: MDPAGGPRGVLPRPCRVLVLLNPRGGKGKALQLFRSHVQPLLAEAEISFTLMLTERRNHARELVRSEELGRWDALVVMSGDGLMHEVVNGLMERPDWETAIQKPLCSLPAGSGNALAASLNHYAGYEQVTNEDLLTNCTLLLCRRLLSPMNLLSLHTASGLRLFSVLSLAWGFIADVDLESEKYRRLGEMRFTLGTFLRLAALRTYRGRLAYLPVGRVGSKTPASPVVVQQGPVDAHLVPLEEPVPSHWTVVPDEDFVLVLALLHSHLGSEMFAAPMGRCAAGVMHLFYVRAGVSRAMLLRLFLAMEKGRHMEYECPYLVYVPVVAFRLEPKDGKGVFAVDGELMVSEAVQGQVHPNYFWMVSGCVEPPPSWKPQQMPPPEEPL
notes: to obtain the full-length cDNA of hSPHK1; expressed in transfected cells; host or cells: HEK293
For B1, the Km [3] was 5 µM.
